Reference: US20240109836A1, “NON-HALL[…] ANALOGS FOR TREATMENT OF NEUROLOGICAL AND PSYCHIATRIC DISORDERS” (The Trustees of Columbia University in the City of New York, priority 2021, published 2024)

What was measured:
5-HT2B = 5-HT2B (Homo sapiens, UniProt P41595); test: IP1 agonist functional assay; type: cell-based
[1] = Head twitch response assay; type: in vivo, Mice (C57bl/6J); settings: mice, 1, 3, 10, and 30 mg/kg s.c., vs positive control DOI
Description: FIG. 2. […] N=5 mice in each cohort. […] Drugs were administered s.c.
Mice (C57bl/6J, 8-15 weeks, 26-33 g) were weighed and moved to the testing room 30 minutes prior to experimentation. Mice were administered the experimental compound at a selected dose s.c. and then immediately moved to a new cage. Before beginning the test, mice were allowed to remain in this cage for a set amount of time ranging 0-10 min based on the compound. The head twitch assay was performed by a trained observer watching the mouse for a 10 min duration and recording the total number of head twitches observed.
DOI was tested at the doses of 1, 3, 10 and 30 mg/kg (s.c., 5 mice per dose) and testing began immediately after administration of the compound. Ariadne (32), (29) and (38) were tested at the doses of 1, 3, 10, and 30 mg/kg (s.c., 5 mice per dose) and there was a 10 min interval between treatment and testing.

5-HT2A = 5-HT2A (Homo sapiens, UniProt P28223); test: IP1 agonist functional assay; type: cell-based
Chain of 5-HT2A (P28223 whole entry): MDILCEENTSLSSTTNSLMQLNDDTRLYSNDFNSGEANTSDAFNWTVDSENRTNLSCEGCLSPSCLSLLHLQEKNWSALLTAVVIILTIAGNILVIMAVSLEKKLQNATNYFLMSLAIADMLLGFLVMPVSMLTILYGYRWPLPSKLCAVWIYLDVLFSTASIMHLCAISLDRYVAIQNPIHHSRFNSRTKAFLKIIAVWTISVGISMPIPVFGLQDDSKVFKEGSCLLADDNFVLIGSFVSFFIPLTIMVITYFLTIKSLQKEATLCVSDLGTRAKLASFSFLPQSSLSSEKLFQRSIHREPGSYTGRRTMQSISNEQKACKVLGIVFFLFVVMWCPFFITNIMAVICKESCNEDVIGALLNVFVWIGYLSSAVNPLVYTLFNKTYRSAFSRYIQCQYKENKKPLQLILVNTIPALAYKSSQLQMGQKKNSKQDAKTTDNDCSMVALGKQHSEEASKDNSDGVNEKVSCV

Chain of 5-HT2B (P41595 whole entry): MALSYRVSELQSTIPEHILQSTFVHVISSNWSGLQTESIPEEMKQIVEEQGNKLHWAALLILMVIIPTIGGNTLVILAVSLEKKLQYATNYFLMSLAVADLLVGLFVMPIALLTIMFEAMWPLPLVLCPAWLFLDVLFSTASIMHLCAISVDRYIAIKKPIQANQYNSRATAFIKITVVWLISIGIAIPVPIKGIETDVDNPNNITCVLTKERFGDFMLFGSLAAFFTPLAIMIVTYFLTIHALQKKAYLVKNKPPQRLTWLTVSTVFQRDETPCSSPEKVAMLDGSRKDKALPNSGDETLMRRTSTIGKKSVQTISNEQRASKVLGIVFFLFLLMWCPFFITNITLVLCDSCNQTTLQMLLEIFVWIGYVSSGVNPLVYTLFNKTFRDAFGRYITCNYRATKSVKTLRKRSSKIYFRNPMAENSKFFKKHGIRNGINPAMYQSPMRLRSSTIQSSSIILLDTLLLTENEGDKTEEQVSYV

Structure (SMILES)	EC50 (5-HT2B) [µM]	psychedelic activity (number of head twitches in a 10-min period) [1]	EC50 (5-HT2A) [µM]	Selectivity (EC50 2B ÷ EC50 2A) (5-HT2A; 5HT2A versus 5HT2B, relative agonism potencies) [x]
CCC(N)Cc1cc(OC)c(C(F)(F)F)cc1OC (stereo not drawn) [compound 29, 1-(2,5-dimethoxy-4-(trifluoromethyl)phenyl) butan-2-amine]	5.9	lower psychedelic activity	0.034	174
CCC(N)Cc1cc(OC)c(COC)cc1OC (stereo not drawn) [compound 38, 1-(2,5-dimethoxy-4-(methoxymethyl)phenyl)butan-2-amine]		lower psychedelic activity	3.8	
